Experiments:
[1] = system: bay LPAAT; assay: LPAAT activity assay, California bay P2 membrane preparation; type: biochemical, Umbellularia californica; settings: P2 membrane preparation; acyl-CoA donor varied, acceptor 12:0-LPA
Protocol: To assay for LPAAT activity, the sample is incubated with lysophosphatidic acid (LPA) and acyl-coenzyme A (acyl-CoA) substrates in buffered solution. The acyl substituents of the two substrates are chosen to correspond with the specificity of the enzyme being measured. […] The acyl group of one substrate is radioactively labeled in order to detect the product formed. In the examples which follow the acyl substituent of the acyl-CoA substrate is radiolabeled with ^14 C in the carboxyl group. LPAAT activity results in transfer of this acyl group from the acyl-CoA "donor" substrate to the LPA "acceptor" substrate, converting the latter into the product, phosphatidic acid (PA). LPAAT activity is measured as the amount of radioactive product formed in a given assay time. The PA product is radioactive as a result of the transferred radiolabeled acyl group at the central carbon atom of the molecule, and the quantity of PA formed may be determined by measuring radioactivity of the PA fraction. For this measurement, the PA is first separated from the acyl-CoA substrate by solvent partitioning, or by thin-layer chromatography (TLC).
20 μl of the sample to be assayed for LPAAT activity is mixed with 217.5 μl of an assay ingredient mixture in a 4-ml, screw-cap vial. […] The incubation takes place in a water bath at 30° C., for 20-30 minutes.
To stop the assay, 0.25 ml of 1M KCl in 0.2M H3 PO4 is added to the vial. At this point, 40 μl BSA (bovine serum albumin, fraction V) at 1 mg/ml are added, followed by 0.75 ml of a solution of 67 μg/ml unlabeled PA (acting as a "carrier" to facilitate partitioning) in chloroform/methanol (2:1, v/v). The chain lengths of the PA acyl groups are chosen to correspond to those used in the assay substrates. Upon thorough mixing of these components the radiolabeled PA product of the LPAAT reaction partitions into the organic phase and away from the unreacted acyl-CoA and LPA. The vial is centrifuged briefly at low speed to facilitate the separation of organic (lower) and aqueous (upper) phases. The aqueous phase is then removed and discarded. The total radioactivity extracted into the organic phase is determined by liquid scintillation counting; a 100 μl sample of the organic phase is transferred to a 20 ml scintillation vial and allowed to dry, and scintillation fluid (3-5 ml) is added to the vial. The radioactivity of the sample, after subtraction of the "minus-enzyme" or "minus-LPA" radioactivities, is taken as an approximate indication of the amount of PA formed in the LPAAT-catalyzed reaction and therefore of LPAAT activity.
A more accurate estimation of the LPAAT activity may be obtained by separating the PA product from these contaminants by TLC. The remaining organic phase is applied to a silica TLC plate. Ascending chromatography is carried out for 50 minutes, using the solvent mixture chloroform/pyridine/88% formic acid (50:30:7, v/v). After the plate has dried, the distribution of radioactivity is visualized and quantitated using an AMBIS radioanalytic imaging system (AMBIS Systems Inc., San Diego, Calif.). From prior application of standard lipid components the Rf of the PA is known. The radioactivity associated with the PA spot is expressed as a percentage of the total radioactivity of the assay sample loaded on the plate. This ratio provides an indication of the proportion of the scintillation counts which represent the PA product, and may be used to correct the counts to obtain the total PA radioactivity formed in the assay.

[2] = molecular target: T1, coconut LPAAT (Cocos nucifera, UniProt Q42670); assay: Acyl-CoA specificity of coconut LPAAT expressed in E. coli (pCGN5505), membrane fractions; type: biochemical; set-up: the SalI/BamHI fragment of pCGN5504 containing the entire coconut LPAAT encoding region; made in house; host or cells: E. coli BL21(DE3), membrane fractions; settings: acceptor 12:0-LPA
T1 sequence (Q42670 1-308): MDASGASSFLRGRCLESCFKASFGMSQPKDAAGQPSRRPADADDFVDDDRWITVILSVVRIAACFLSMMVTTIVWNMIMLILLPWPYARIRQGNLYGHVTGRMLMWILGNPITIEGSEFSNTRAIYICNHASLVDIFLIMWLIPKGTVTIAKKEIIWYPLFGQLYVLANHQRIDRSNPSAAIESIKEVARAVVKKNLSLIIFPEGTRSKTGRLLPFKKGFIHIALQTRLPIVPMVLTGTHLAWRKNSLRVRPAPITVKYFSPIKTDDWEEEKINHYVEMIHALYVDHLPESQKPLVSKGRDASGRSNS
Protocol: The samples are centrifuged at 12,000 g for 15 minutes. The resulting supernatant fractions are centrifuged for two hours at 134,000 g, and the pelleted membranes suspended in 50 mM HEPES, 200 mM NaCl, 20% (w/v) glycerol, 5 mM β-mercaptoethanol, pH 7.5. Membrane fractions are assayed for acyl-CoA substrate specificities with 12:0-LPA and various acyl-CoA species as described in Example 1. Membrane preparations from cultures of E. coli and from immature coconut endosperm are combined with soybean phospholipids and diluted in 1M NaCl in Buffer A to simulate the pre-assay conditions of the solubilized enzyme.

[3] = molecular target: T2, coconut medium-chain LPAAT (Cocos nucifera, UniProt Q42670); assay: Assay of solubilized coconut LPAAT (S3 preparation) with phospholipid activation; type: biochemical; settings: radioactivity of PA product resolved on TLC, after 30 min assay; S3 reactivated with PLs; acceptor 12:0-LPA
T2 construct: The frozen coconut P2 preparation is thawed and diluted in a volume of P2 Buffer; from tissue; host or cells: immature coconut endosperm, solubilized S3 supernatant of P2 membranes
T2 sequence (Q42670 1-308): T1 sequence (Q42670 1-308)
Protocol: After solubilization of LPAAT protein from plant membranes as described below, modification of the above assay conditions is required in order to detect maximum LPAAT activity. This is especially important after the solubilized LPAAT has been chromatographed on at least one column. The important modification to the assay is the addition, at the start of the assay procedure, of 1 μl of a concentrated phospholipid (PL) solution to 20 μl of the LPAAT-containing sample in a glass vial. The high concentrations of CHAPS (at least 1% w/v) and NaCl (typically 0.5M or greater) in the solubilized LPAAT preparation aid in dispersal of the phospholipids. The phospholipid solution is obtained by sonicating crude soybean phospholipids (L-phosphatidylcholine from soybean, "Type IVs" obtained from Sigma Chemical Company, St. Louis) at 50 mg/ml in 0.5% (w/v) CHAPS (3-[(3-cholamidopropyl) -dimethylammonio]-1-propane-sulfonate) until a uniform suspension is obtained.
The remaining assay ingredients (as described above), with the exception of the acyl-CoA substrate, are then added as 219 μl of a mixture. […] Radiolabeled acyl-CoA (10 μl, or an appropriately adjusted volume as indicated above) is added to start the LPAAT-catalyzed reaction and the rest of the assay procedure is completed as described above.
All steps are carried out at 0-4° C. The frozen coconut P2 preparation is thawed and diluted in a volume of P2 Buffer to achieve a protein concentration of 0.94 mg/ml P2 protein. Protein concentration is determined by Coomassie dye staining relative to a bovine serum albumin standard. The P2 membrane suspension is then diluted with an equal volume of Solubilization Buffer (50 mM HEPES-NaOH, pH 7.5, […], 20% (w/v) glycerol, 4.5% (w/v) CHAPS, 100 μM Pefabloc, 1 μM leupeptin, 1 μM Pepstatin A, and 5 mM β-ME), resulting in final concentrations of 1M NaCl, 2.25% (w/v) detergent, and 0.47 mg/ml protein. These component concentrations, and the resulting detergent/protein ratio of 48/1 (w/w), are important for optimal solubilization. The preparation is then incubated on ice for 30 minutes with occasional, gentle stirring, followed by centrifugation at 252,000×g for 2 hours. The resulting supernatant fraction (S3) is filtered through buffer-wetted Miracloth, and may then be stored frozen (-70) with only slight loss of activity. Optimally, it is applied to chromatography columns without an intervening freeze-thaw cycle.
Assay of the coconut medium-chain LPAAT activity after solubilization (S3 preparation) and reactivation with PLs, using different acyl-CoA substrates, provides the following results (Table 3). In all these assays the acceptor substrate is 12:0-LPA.

Row | utilization by E. coli expressed coconut LPAAT [2] | LPAAT Activity, solubilized coconut LPAAT [3] [cpm] | Compound | LPAAT Activity from Bay [1]
1 | most active | 162 | CCCCCCCCCC(=O)SCCNC(=O)CCNC(=O)[C@H](O)C(C)(C)COP(=O)(O)OP(=O)(O)OC[C@H]1O[C@@H](n2cnc3c(N)ncnc32)[C@H](O)[C@@H]1OP(=O)(O)O [10:0] | 10 pmol PA formed/30 min assay
2 | – | 30 | CCCCCCCC/C=C\CCCCCCCC(=O)SCCNC(=O)CCNC(=O)[C@H](O)C(C)(C)COP(=O)(O)OP(=O)(O)OC[C@H]1O[C@@H](n2cnc3c(N)ncnc32)[C@H](O)[C@@H]1OP(=O)(O)O [18:1, oleoyl-CoA] | 5 pmol PA formed/30 min assay
3 | some minor activity detectable | 16 | CCCCCCCC(=O)SCCNC(=O)CCNC(=O)[C@H](O)C(C)(C)COP(=O)(O)OP(=O)(O)OC[C@H]1O[C@@H](n2cnc3c(N)ncnc32)[C@H](O)[C@@H]1OP(=O)(O)O [8:0] | 13 pmol PA formed/30 min assay
4 | – | 18 | CCCCCCCCCCCCCCCC(=O)SCCNC(=O)CCNC(=O)[C@H](O)C(C)(C)COP(=O)(O)OP(=O)(O)OC[C@H]1O[C@@H](n2cnc3c(N)ncnc32)[C@H](O)[C@@H]1OP(=O)(O)O [16:0] | 6 pmol PA formed/30 min assay
5 | most active | 205 | CCCCCCCCCCCC(=O)SCCNC(=O)CCNC(=O)[C@H](O)C(C)(C)COP(=O)(O)OP(=O)(O)OC[C@H]1O[C@@H](n2cnc3c(N)ncnc32)[C@H](O)[C@@H]1OP(=O)(O)O [12:0, lauroyl-CoA] | 14 pmol PA formed/30 min assay

Row | Compound | utilization by E. coli expressed coconut LPAAT [2] | LPAAT Activity, solubilized coconut LPAAT [3] [cpm] | LPAAT Activity from Bay [1]
6 | CCCCCCCCCCCCCC(=O)SCCNC(=O)CCNC(=O)[C@H](O)C(C)(C)COP(=O)(O)OP(=O)(O)OC[C@H]1O[C@@H](n2cnc3c(N)ncnc32)[C@H](O)[C@@H]1OP(=O)(O)O [14:0] | most active | 84 | 5 pmol PA formed/30 min assay

Reference: patent US5968791A, “Plant lysophosphatidic acid acyltransferases” (Calgene, Inc., priority 1995, dated 1999)
